Measurements: PMC8633584, “Patient mutations in human ATP:cob(I)alamin adenosyltransferase differentially affect its catalytic versus chaperone functions” (The Journal of Biological Chemistry, 2021)
Numbering of substitutions follows the chain as printed. Each block holds one compound with its values, some of them ahead of it.

Columns and labels:
R190H ATR [1] = target: T1, R190H ATR (Homo sapiens, UniProt Q96EY8, R190H); assay: AdoCbl synthesis, steady-state kinetics; format: biochemical
T1 construct: The expression construct for recombinant human full-length and ΔN18 ATR in a pET-28b vector; His-tag (thrombin-cleavable) (N, cleaved yes); made in house; host or cells: E. coli BL21 (DE3)
T1 sequence (Q96EY8 38-250 R190H limits assumed): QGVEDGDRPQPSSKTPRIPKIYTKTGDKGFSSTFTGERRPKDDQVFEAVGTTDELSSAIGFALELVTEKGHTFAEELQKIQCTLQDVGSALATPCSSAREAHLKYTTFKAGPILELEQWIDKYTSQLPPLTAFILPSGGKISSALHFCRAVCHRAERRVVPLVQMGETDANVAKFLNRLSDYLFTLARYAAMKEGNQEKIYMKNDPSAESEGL
Experimental: (§1) AdoCbl synthesis was determined by mixing cob(II)alamin (40 μM) in buffer A at 20 °C with ∼10 equivalents of titanium citrate under strictly anaerobic conditions. The reaction was started by addition of ATP (1 mM) and ATR (1 μM trimer concentration). The concentration of cob(I)alamin formed by reduction of cob(II)alamin was estimated using ε386nm = 28.0 cm^−1 mM^−1. The rate of AdoCbl synthesis was determined by measuring the change in absorbance at 522 nm using Δ ε522nm =5.06 mM^−1 cm^−1.

E193K ATR [2] = target: T2, E193K ATR (Homo sapiens, UniProt Q96EY8, E193K); assay: AdoCbl synthesis, steady-state kinetics; format: biochemical; design: WT and the R190C variants of ΔN18-ATR and full-length E193K ATR were purified; His-tag (thrombin-cleavable) (N, cleaved yes); made in house; host or cells: E. coli BL21 (DE3)
T2 sequence (Q96EY8 38-250 E193K limits assumed): T1 sequence (Q96EY8 38-250 R190H limits assumed) with H153R, E156K
Experimental: as §1

R190C ATR [3] = target: T3, R190C ATR (Homo sapiens, UniProt Q96EY8, R190C); assay: AdoCbl synthesis, steady-state kinetics; format: biochemical; design: The expression construct for recombinant human full-length and ΔN18 ATR in a pET-28b vector; His-tag (thrombin-cleavable) (N, cleaved yes); made in house; host or cells: E. coli BL21 (DE3)
T3 sequence (Q96EY8 38-250 R190C limits assumed): T1 sequence (Q96EY8 38-250 R190H limits assumed) with H153C
Experimental: as §1

WT ATR [4] = target: T4, WT ATR (Homo sapiens, UniProt Q96EY8); assay: AdoCbl synthesis, steady-state kinetics; format: biochemical; design: The expression construct for recombinant human full-length and ΔN18 ATR in a pET-28b vector; His-tag (thrombin-cleavable) (N, cleaved yes); made in house; host or cells: E. coli BL21 (DE3)
T4 sequence (Q96EY8 38-250 limits assumed): T1 sequence (Q96EY8 38-250 R190H limits assumed) with H153R
Experimental: as §1

R190H ATR [5] = target: T1, R190H ATR; assay: AdoCbl binding to ATR, UV-visible titration
Experimental: (§2) Unless noted otherwise, all titration experiments were performed in buffer A. AdoCbl binding was monitored by adding increasing concentrations of WT or mutant ATR to 30 μM AdoCbl in buffer A at 20 °C. The spectrum was recorded 5 min after each addition. The concentration of bound AdoCbl was determined using […] = 8.0 cm^−1 mM^−1. The change in absorbance at 455 nm (corresponding to base-off AdoCbl bound to ATR) was plotted versus ATR concentration and fitted using the Dynafit software (BioKin) ([35]). Equation 1 (where A is the absorbance at 455 nm following each aliquot of ATR, ΔAmax is the maximal change in absorbance at 455 nm upon binding of AdoCbl to ATR, [E]t is the concentration of ATR active sites, and [L]t is the total AdoCbl concentration) was used to determine the dissociation constant for AdoCbl.(1) A=ΔAmax×([E]t+[L]t+Kd)+([E]t+[L]t+Kd)^2−4[L]t[E]t/2[L]t
(§3) The effect of PPPi on the KD for AdoCbl was determined by performing the above titration in the presence of 1 mM PPPi under anaerobic conditions.

E193K ATR [6] = target: T2, E193K ATR; assay: AdoCbl binding to ATR, UV-visible titration; design: WT and the R190C variants of ΔN18-ATR and full-length E193K ATR were purified; His-tag (thrombin-cleavable) (N, cleaved yes); made in house; host or cells: E. coli BL21 (DE3)
Experimental: as §2, §3

R190C ATR [7] = target: T3, R190C ATR; assay: AdoCbl binding to ATR, UV-visible titration; design: The expression construct for recombinant human full-length and ΔN18 ATR in a pET-28b vector; His-tag (thrombin-cleavable) (N, cleaved yes); made in house; host or cells: E. coli BL21 (DE3)
Experimental: as §2, §3

WT ATR [8] = target: T4, WT ATR; assay: AdoCbl binding to ATR, UV-visible titration; design: The expression construct for recombinant human full-length and ΔN18 ATR in a pET-28b vector; His-tag (thrombin-cleavable) (N, cleaved yes); made in house; host or cells: E. coli BL21 (DE3)
Experimental: as §2, §3

E193K ATR [9] = target: T2, E193K ATR; settings: 1.1:1.0:1.0 E193K ATR:AdoCbl:PPPi
Experimental: (§4) The samples were prepared in an anaerobic chamber and contained: PPPi (1 mM), WT, R190C or E193K ATR (1.1 mM active sites), MgCl2 (2 mM), AdoCbl (1 mM) in 50 mM Hepes buffer pH 7.5 containing 150 mM KCl and 2 mM DTT at room temperature. The samples were transferred to 5-mm (internal diameter) NMR tubes (Wilmad-Glass), and the final volume was brought up to 0.4 ml with 90% water and 10% D2O (Cambridge Isotope Labs).
(§5) […] NMR spectra were collected at 242.5 MHz on a Bruker AVANCE NEO spectrometer equipped with a prodigy cryoprobe locked to D2O. All the NMR experiments were carried out at 25 °C using 12 μs 90° pulse widths, 8192 data points, and 4096 scans with 0.8 s recycle time. The chemical shifts were reported on proton-decoupled spectra by Gaussian line fits to the singlet resonances, relative to an external standard of 85% H3P0_4.

R190C ATR [10] = target: T3, R190C ATR; settings: 1.1:1.0:1.0 R190C ATR:AdoCbl:PPPi
Experimental: as §4, §5

WT ATR [11] = target: T4, WT ATR; settings: WT ATR 1.1 mM active sites, PPPi 1 mM, no AdoCbl
Experimental: as §4, §5

- lower activity (kcat) relative to WT ATR (R190H ATR [1]; R190H ATR vs WT): 115 fold
- kcat (R190H ATR [1]; R190H ATR, AdoCbl synthesis, cob(II)alamin 40 μM, titanium citrate, anaerobic, 20 °C): 0.0017 ± 0.0017 s⁻¹
- increase of KM for ATP relative to WT ATR (E193K ATR [2]; E193K ATR vs WT): 52 fold
- kcat (E193K ATR [2]; E193K ATR, AdoCbl synthesis, cob(II)alamin 40 μM, titanium citrate, anaerobic, 20 °C): 0.18 ± 0.01 s⁻¹
- Km (E193K ATR [2]; E193K ATR, read-out: KM (ATP)): 235 ± 16 µM
- increase of KM for ATP relative to WT ATR (R190C ATR [3]; R190C ATR vs WT): 20 fold
- lower activity (kcat) relative to WT ATR (R190C ATR [3]; R190C ATR vs WT): 16 fold
- kcat (R190C ATR [3]; R190C ATR, AdoCbl synthesis, cob(II)alamin 40 μM, titanium citrate, anaerobic, 20 °C): 0.012 ± 0.0017 s⁻¹
- Km (R190C ATR [3]; R190C ATR, read-out: KM (ATP)): 92 ± 31 µM
- kcat (WT ATR [4]; AdoCbl synthesis, cob(II)alamin 40 μM, titanium citrate, anaerobic, 20 °C): 0.192 ± 0.0267 s⁻¹
- Km (WT ATR [4]; read-out: KM (ATP)): 4.5 ± 1.1 µM
Structure (SMILES): Nc1ncnc2c1ncn2[C@@H]1O[C@H](COP(=O)(O)OP(=O)(O)OP(=O)(O)O)[C@@H](O)[C@H]1O [ATP]

Structure (SMILES): C/C1=C2/[N-][C@H]([C@H](CC(N)=O)[C@@]2(C)CCC(=O)NC[C@@H](C)OP(=O)([O-])O[C@H]2[C@@H](O)[C@@H](n3cnc4cc(C)c(C)cc43)O[C@@H]2CO)[C@]2(C)N=C(/C(C)=C3N=C(/C=C4N=C1[C@@H](CCC(N)=O)C\4(C)C)[C@@H](CCC(N)=O)[C@]\3(C)CC(N)=O)[C@@H](CCC(N)=O)[C@]2(C)CC(N)=O.[CH2-][C@H]1O[C@@H](n2cnc3c(N)ncnc32)[C@H](O)[C@@H]1O.[Co+3] [AdoCbl, 5′-deoxyadenosylcobalamin]
- Kd (R190H ATR [5]; 1 mM PPPi, anaerobic): 13 ± 3 µM
- lower KD(AdoCbl) in the presence of PPPi (R190H ATR [5]; PPPi 1 mM): 3.9 fold
- Kd (R190H ATR [5]; without PPPi, buffer A, 20 °C): 50 ± 5 µM
- Kd (E193K ATR [6]; 1 mM PPPi, anaerobic): 100 ± 20 µM
- effect of PPPi on KD for AdoCbl (E193K ATR [6]; PPPi 1 mM): no effect
- Kd (E193K ATR [6]; without PPPi, buffer A, 20 °C): 120 ± 30 µM
- Kd (R190C ATR [7]; 1 mM PPPi, anaerobic): 4 ± 1 µM
- lower KD(AdoCbl) in the presence of PPPi (R190C ATR [7]; PPPi 1 mM): 10 fold
- Kd (R190C ATR [7]; without PPPi, buffer A, 20 °C): 40 ± 6 µM
- Kd (WT ATR [8]; 1 mM PPPi, anaerobic): 0.2 ± 0.1 µM
- decrease of KD for AdoCbl by PPPi (WT ATR [8]; PPPi 1 mM): 5 fold
- Kd (WT ATR [8]; without PPPi, buffer A, 20 °C): 1 ± 0.3 µM

- PPPi binding by 31P NMR (E193K ATR [9]): did not lead to detectable PPPi binding
- PPPi binding by 31P NMR (R190C ATR [10]): did not lead to detectable PPPi binding
- PPPi binding by 31P NMR (WT ATR [11]): not bound to the protein
Structure (SMILES): O=P(O)(O)OP(=O)(O)OP(=O)(O)O [PPPi, inorganic triphosphate]
